Reference: ChEMBL document CHEMBL1136685, “Structure-activity relationship of cyclic peptide penta-c[Asp-His(6)-DPhe(7)-Arg(8)-Trp(9)-Lys]-NH(2) at the human melanocortin-1 and -4 receptors: His(6) substitution” (Bioorg Med Chem Lett, 2003)

Experiments:
[1] = target: T1, Melanocortin receptor 4 (Homo sapiens, UniProt P32245); assay: Binding affinity towards human melanocortin receptor (hMC4R) using NDP-MSH as radioligand
[2] = target: T2, Melanocyte-stimulating hormone receptor (Homo sapiens, UniProt Q01726); assay: Binding affinity towards human melanocortin receptor (hMC1R) using NDP-MSH as radioligand
Target sequence in this assay (Q01726 whole entry): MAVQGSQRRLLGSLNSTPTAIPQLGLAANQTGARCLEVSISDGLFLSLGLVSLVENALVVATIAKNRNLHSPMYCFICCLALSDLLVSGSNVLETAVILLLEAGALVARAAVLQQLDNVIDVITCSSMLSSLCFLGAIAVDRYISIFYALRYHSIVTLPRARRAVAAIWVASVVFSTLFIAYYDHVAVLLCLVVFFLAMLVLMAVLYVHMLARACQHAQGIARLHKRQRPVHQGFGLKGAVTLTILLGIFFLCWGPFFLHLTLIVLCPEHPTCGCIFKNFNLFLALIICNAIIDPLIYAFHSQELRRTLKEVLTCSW

[3] = target: T1, Melanocortin receptor 4; assay: Agonistic activity against human melanocortin receptor (hMC4R) for cAMP accumulation; type: functional
[4] = target: T1, Melanocortin receptor 4; assay: Agonist activity at human melanocortin receptor (hMC4R).; type: functional
[5] = target: T2, Melanocyte-stimulating hormone receptor; assay: (§1) Agonistic activity against human melanocortin receptor (hMC1R) for cAMP accumulation; type: functional
Target sequence in this assay (Q01726 whole entry, looked up): as the sequence (Q01726 whole entry) above

[6] = target: T2, Melanocyte-stimulating hormone receptor; assay: Agonistic activity against human melanocortin receptor (hMC1R) for cAMP accumulation at a concentration of 50 uM; type: functional
Target sequence in this assay (Q01726 whole entry, looked up): as the sequence (Q01726 whole entry) above

[7] = target: T3, Melanocortin receptor 3 (Homo sapiens, UniProt P41968); assay: Agonistic activity against human melanocortin receptor (hMC3R) for cAMP accumulation at a concentration of 50 uM; type: functional
[8] = target: T4, Melanocortin receptor 5 (Homo sapiens, UniProt P33032); assay: Agonistic activity against human melanocortin receptor (hMC5R) for cAMP accumulation at a concentration of 50 uM; type: functional
[9] = target: T4, Melanocortin receptor 5; assay: Agonistic activity against human melanocortin receptor (hMC5R) for cAMP accumulation; type: functional
[10] = target: T2, Melanocyte-stimulating hormone receptor; assay: Agonist activity at human melanocortin receptor (hMC1R).; type: functional
Target sequence in this assay (Q01726 whole entry): as above

[11] = target: T3, Melanocortin receptor 3; assay: Agonistic activity against human melanocortin receptor (hMC3R) for cAMP accumulation; type: functional
[12] = target: Melanocortin receptor 4; assay: as §1; type: functional

T3 sequence (P41968 whole entry): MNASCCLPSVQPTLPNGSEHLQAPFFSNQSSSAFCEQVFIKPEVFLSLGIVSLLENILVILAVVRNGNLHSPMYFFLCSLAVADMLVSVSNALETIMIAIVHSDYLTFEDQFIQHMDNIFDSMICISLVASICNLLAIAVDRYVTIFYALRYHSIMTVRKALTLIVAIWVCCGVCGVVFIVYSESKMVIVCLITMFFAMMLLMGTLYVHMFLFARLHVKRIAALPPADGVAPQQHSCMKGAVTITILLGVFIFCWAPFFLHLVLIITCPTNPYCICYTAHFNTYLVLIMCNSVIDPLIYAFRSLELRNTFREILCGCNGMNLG
T4 sequence (P33032 whole entry): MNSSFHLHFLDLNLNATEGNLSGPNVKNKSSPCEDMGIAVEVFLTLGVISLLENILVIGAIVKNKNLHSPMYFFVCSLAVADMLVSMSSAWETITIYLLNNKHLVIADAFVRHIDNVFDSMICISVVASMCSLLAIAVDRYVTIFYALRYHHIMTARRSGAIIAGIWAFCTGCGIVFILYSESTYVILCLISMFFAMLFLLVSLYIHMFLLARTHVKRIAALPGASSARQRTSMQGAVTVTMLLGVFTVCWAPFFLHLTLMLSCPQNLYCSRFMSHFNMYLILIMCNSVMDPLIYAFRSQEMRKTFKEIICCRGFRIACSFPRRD
T1 sequence (P32245 whole entry): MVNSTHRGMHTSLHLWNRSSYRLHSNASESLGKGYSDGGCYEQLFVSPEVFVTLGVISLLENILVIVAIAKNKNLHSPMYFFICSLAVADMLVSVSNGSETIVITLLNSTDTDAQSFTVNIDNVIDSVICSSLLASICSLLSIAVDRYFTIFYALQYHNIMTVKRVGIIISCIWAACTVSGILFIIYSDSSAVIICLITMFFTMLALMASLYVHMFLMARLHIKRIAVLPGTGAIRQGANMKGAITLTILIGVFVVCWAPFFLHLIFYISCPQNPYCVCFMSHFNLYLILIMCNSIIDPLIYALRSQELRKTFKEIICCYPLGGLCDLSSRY

SMILES | EC50 [3] [nM] | EC50 [4] [nM] | cAMP accumulation [6] [%] | cAMP accumulation [7] [%] | cAMP accumulation [8] [%] | further results
CCCCC(=O)N[C@H]1CC(=O)NCCCC[C@@H](C(N)=O)NC(=O)[C@H](Cc2c[nH]c3ccccc23)NC(=O)[C@H](CCCN=C(N)N)NC(=O)[C@@H](Cc2ccccc2)NC(=O)C2(CCc3c(Cl)cccc3C2)NC1=O (single isomer, unassigned; form 1) | 4 | – | – | – | – | IC50 [1]: 15 nM; IC50 [2]: 5820 nM
CCCCC(=O)N[C@H]1CC(=O)NCCCC[C@@H](C(N)=O)NC(=O)[C@H](Cc2c[nH]c3ccccc23)NC(=O)[C@H](CCCNC(N)=O)NC(=O)[C@@H](Cc2ccccc2)NC(=O)C2(CCc3c(Cl)cccc3C2)NC1=O (single isomer, unassigned; form 2) | 105 | – | – | – | – | IC50 [1]: 675 nM; IC50 [2]: 14800 nM
CCCCC(=O)N[C@H]1CC(=O)NCCCC[C@@H](C(N)=O)NC(=O)[C@H](Cc2c[nH]c3ccccc23)NC(=O)[C@H](CCCN=C(N)N)NC(=O)[C@@H](Cc2ccccc2)NC(=O)[C@@H]2c3ccccc3CN2C1=O (single isomer, unassigned; form 1) | – | 118 | – | – | – | EC50 [5]: 56 nM
CCCCC(=O)N[C@@H]1CC(=O)NCCCC[C@@H](C(N)=O)NC(=O)[C@H](Cc2c[nH]c3ccccc23)NC(=O)[C@@H](CCCN=C(N)N)NC(=O)[C@H](Cc2ccccc2)NC(=O)C2(CCc3c(Cl)cccc3C2)NC1=O (single isomer, unassigned; form 2) | – | – | 60 | 0 | 38 | –
CCCCC(=O)N[C@H]1CC(=O)NCCCC[C@@H](C(N)=O)NC(=O)[C@H](Cc2c[nH]c3ccccc23)NC(=O)[C@H](CCCN=C(N)N)NC(=O)[C@@H](Cc2ccccc2)NC(=O)C2(CCc3c(Cl)cccc3C2)NC1=O (single isomer, unassigned; form 2) | 40 | – | – | – | – | –
CCCCC(=O)N[C@@H]1CC(=O)NCCCC[C@@H](C(N)=O)NC(=O)[C@H](Cc2c[nH]c3ccccc23)NC(=O)[C@@H](CCCNC(N)=O)NC(=O)[C@H](Cc2ccccc2)NC(=O)C2(CCc3c(Cl)cccc3C2)NC1=O (single isomer, unassigned; form 1) | – | – | 0 | 0 | 0 | –
CCCCC(=O)N[C@@H]1CC(=O)NCCCC[C@@H](C(N)=O)NC(=O)[C@H](Cc2c[nH]c3ccccc23)NC(=O)[C@@H](CCCNC(N)=O)NC(=O)[C@H](Cc2ccccc2)NC(=O)C2(CCc3c(Cl)cccc3C2)NC1=O (single isomer, unassigned; form 2) | – | – | 0 | 0 | 0 | –
CCCCC(=O)N[C@H]1CC(=O)NCCCC[C@@H](C(N)=O)NC(=O)[C@H](Cc2c[nH]c3ccccc23)NC(=O)[C@H](CCCNC(=N)N)NC(=O)[C@@H](Cc2ccccc2)NC(=O)[C@H](Cc2cnc[nH]2)NC1=O | – | 0.9 | – | – | – | EC50 [9]: 33 nM; EC50 [10]: 0.4 nM; EC50 [11]: 6 nM
CCCCC(=O)N[C@@H]1CC(=O)NCCCC[C@@H](C(N)=O)NC(=O)[C@H](Cc2c[nH]c3ccccc23)NC(=O)[C@@H](CCCN=C(N)N)NC(=O)[C@H](Cc2ccccc2)NC(=O)C2(CCc3c(Cl)cccc3C2)NC1=O (single isomer, unassigned; form 1) | – | – | 20 | 25 | 75 | –
CCCCC(=O)N[C@H]1CC(=O)NCCCC[C@@H](C(N)=O)NC(=O)[C@H](Cc2c[nH]c3ccccc23)NC(=O)[C@H](CCCNC(=N)N)NC(=O)[C@@H](Cc2ccccc2)NC(=O)[C@H](Cc2ccc(-c3ccccc3)cc2)NC1=O | – | 6 | – | – | – | EC50 [12]: 53 nM
CCCCC(=O)N[C@H]1CC(=O)NCCCC[C@@H](C(N)=O)NC(=O)[C@H](Cc2c[nH]c3ccccc23)NC(=O)[C@H](CCCNC(N)=O)NC(=O)[C@@H](Cc2ccccc2)NC(=O)C2(CCc3c(Cl)cccc3C2)NC1=O (single isomer, unassigned; form 1) | 48 | – | – | – | – | IC50 [1]: 410 nM; IC50 [2]: 13100 nM
CCCCC(=O)N[C@H]1CC(=O)NCCCC[C@@H](C(N)=O)NC(=O)[C@H](Cc2c[nH]c3ccccc23)NC(=O)[C@H](CCCN=C(N)N)NC(=O)[C@@H](Cc2ccccc2)NC(=O)[C@@]2(CCc3c(C)cccc3C2)NC1=O (mixture of isomers) | – | 25 | 80 | – | – | –
